Among the data in US7799820B2, “2-Heterocycle-substituted indole derivatives for treating diabetes and associated conditions” (Banyu Pharmaceutical Co., Ltd., priority 2005, dated 2010) are EC50 values, retold here.

The structures appear in SMILES notation.

The target in the experiment is T1, recombinant human liver GK (Homo sapiens, UniProt P35557).
T1 construct: made in house; host or cells: E. coli
T1 sequence (P35557 1-466 isoform P35557-2): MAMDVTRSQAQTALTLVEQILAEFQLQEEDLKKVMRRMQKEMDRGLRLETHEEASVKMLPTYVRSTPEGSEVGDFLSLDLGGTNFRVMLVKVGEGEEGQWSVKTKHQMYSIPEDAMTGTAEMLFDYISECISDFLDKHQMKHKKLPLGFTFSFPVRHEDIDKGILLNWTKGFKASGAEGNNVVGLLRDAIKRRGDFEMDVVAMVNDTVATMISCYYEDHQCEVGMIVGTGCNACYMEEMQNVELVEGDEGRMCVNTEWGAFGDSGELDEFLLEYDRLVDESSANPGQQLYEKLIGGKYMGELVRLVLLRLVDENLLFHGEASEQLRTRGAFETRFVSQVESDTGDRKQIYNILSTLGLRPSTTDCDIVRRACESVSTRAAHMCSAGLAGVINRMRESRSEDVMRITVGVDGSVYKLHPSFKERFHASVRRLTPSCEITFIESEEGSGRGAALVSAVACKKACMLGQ
Kind of experiment: glucokinase activation assay (Thio-NADH, G6PDH-coupled). The class given is biochemical. As to conditions: final glucose concentration 2.5 mM; 30° C. From the text: The excellent glucokinase-activating effect of the compounds of formula (I) may be determined by a method described in literature (e.g., Diabetes, Vol. 45, pp. 1671-1677, 1996), or in accordance with it.
The glucokinase activity may be determined not by directly measuring glucose-6-phosphate but by measuring the level of Thio-NADH, which is produced when a reporter enzyme, glucose-6-phosphate dehydrogenase produces phosphogluconolactone from glucose-6-phosphate, and based on that level, the level of glucokinase activation may be determined.
In this assay, used was a recombinant human liver GK, which was expressed by E. coli as a FLAG fusion protein therein and was purified by ANTIFLAG M2 AFFINITY GEL (Sigma).
Using a flat-bottomed 96-well plate, the assay was carried out at 30° C. 69 μl of an assay buffer (25 mM Hepes Buffer, pH=7.2, 2 mM MgCl2, 1 mM ATP, 0.5 mM TNAD, 1 mM dithiothreitol) was put into the plate, and 1 μl of a DMSO solution of the compound or DMSO alone as a control was added thereto. Next, 20 μl of an enzyme mixture (FLAG-GK, 20 U/ml G6PDH) cooled in ice was added to it, and 10 μl of a substrate, 25 mM glucose was added to it, and the reaction was initiated (final glucose concentration=2.5 mM).
After the start of the reaction, the increase in the absorbance at 405 nm was measured for 12 minutes at intervals of 30 seconds, and the increase for the first 5 minutes was used for evaluating the compound tested. FLAG-GK was added so that the absorbance increase after 5 minutes in the presence of 1% DMSO could be from 0.04 to 0.06.
The OD level of the DMSO control was set as 100%; and the OD level of the test compound at different concentrations was determined. From the OD level at each concentration, Emax (%) and EC50 (μM) were computed and used as the index of the GK-activating potency of the compound.

The EC50 is the concentration giving half of the maximal effect. `Cc1nc(-c2ccc(Oc3cc4cc(-c5ccccn5)[nH]c4cc3CN3CCCC3=O)cn2)no1` [Example 6, 1-[(5-([6-(5-Methyl-1,2,4-oxadiazol-3-yl)pyridin-3-yl]oxy)-2-pyridin-2-yl-1H-indol-6-yl)methyl]pyrrolidin-2-one]: the 50% effective concentration (EC50) was determined as 50 nM.

`CS(=O)(=O)c1ccc(Oc2cc3cc(-c4ccccn4)[nH]c3cc2CN2CCCC2=O)cn1` [Example 3, 1-[(5-([6-(Methylsulfonyl)pyridin-3-yl]oxy)-2-pyridin-2-yl-1H-indol-6-yl)methyl]p-pyrrolidin-2-one]: the EC50 stood at 70 nM.

On to `CCS(=O)(=O)c1ccc(Oc2cc3cc(-c4ccccn4)[nH]c3cc2Oc2cccnc2OC(F)F)cn1` [Example 2, 6-([2-(Difluoromethoxy)pyridin-3-yl]oxy)-5-([6-(ethylsulfonyl)pyridin-3-yl]oxy)-2-pyridin-2-yl-1H-indole], for which the EC50 stood at 180 nM.
